According to patent publication US7872005B2, “2-substituted heteroaryl compounds” (Synta Pharmaceuticals Corporation, priority 2004, dated 2011):

System: colitis in C.B-17 SCID mice
Assay: CD4+ CD45Rb high T cell-reconstituted SCID colitis model mice
Format: in vivo, mouse
Experimental: Treatment of Crohn's disease in CD4^+ CD45Rb^high T cell-reconstituted SCID colitis model mice: Spleen cells were prepared from normal female BALB/c mice. For cell purification, the following anti-mouse antibodies were used to label non-CD4^+ T cells: B220 (RA3-6B2), CD11b (M1/70), and CD8α (53-6.72). All antibodies were obtained from BioSource (Camarillo, Calif.). M450 anti-rat IgG-coated magnetic beads (Dynal, Oslo, Norway) were used to bind the antibodies and negative selection was accomplished using an MPC-1 magnetic concentrator. The enriched CD4^+ cells were then labeled for cell sorting with FITC-conjugated CD45RB (16A, Pharmingen, San Diego, Calif.) and PE-conjugated CD4 (CT-CD4, Caltag, Burlingame, Calif.). CD4^+ CD45RB^high cells were operationally defined as the upper 40% of CD45Rb-staining CD4^+ cells and sorted under sterile conditions by flow cytometry. Harvested cells were resuspended at 4×10^6/mL in PBS and injected 100 μL intraperitoneally into female C.B-17 SCID mice. Pyrimidine compounds of this invention (e.g., Compound 12) and/or vehicle was orally administered once a day, 5 days per week, starting the day following the transfer. The transplanted SCID mice were weighed weekly and their clinical condition was monitored.
Colon tissue samples were fixed in 10% buffered formalin and embedded in paraffin. Sections (4 μm) collected from ascending, transverse, and descending colon were cut and stained with hematoxylin and eosin. The severity of colitis was determined based on histological examination of the distal colon sections, whereby the extent of colonic inflammation was graded on a scale of 0-3 in each of four criteria: crypt elongation, cell infiltration, depletion of goblet cells, and the number of crypt abscesses.
LP lymphocytes were isolated from freshly obtained colonic specimens. After removal of payer's patches, the colon was washed in Ca/Mg-free HBSS, cut into 0.5 cm pieces and incubated twice in HBSS containing EDTA (0.75 mM), DTT (1 mM), and antibiotics (amphotericin 2.5 μg/mL, gentamicin 50 μg/mL from Sigma) at 37° C. for 15 min. Next, the tissue was digested further in RPMI containing 0.5 mg/mL collagenase D, 0.01 mg/mL DNase I (Boehringer Manheim), and antibiotics at 37° C. LP cells were then layered on a 40-100% Percoll gradient (Pharmacia, Uppsala, Sweden), and lymphocyte-enriched populations were isolated from the cells at the 40-100% interface.
To measure cytokine production, 48-well plates were coated with 10 μg/mL murine anti-CD3ε antibody (145-2C11) in carbonate buffer (PH 9.6) overnight at 4° C. […] Murine IFNγ was measured using an ELISA kit from Endogen (Cambridge, Mass.), according to the manufacturer's instructions.

Cc1cccc(/C=N/Nc2cc(N3CCOCC3)nc(CCOC(=O)Nc3cccc(C(F)(F)F)c3)n2)c1 [Compound 12, (3-Trifluoromethyl-phenyl)-carbamic acid 2-{4-[N′-(3-methyl-benzylidene)-hydrazino]-6-morpholin-4-yl-pyrimidin-2-yl}-ethyl ester]
IFNγ production by LP cells in response to anti-CD3 and anti-CD28 antibody (LP cells from treated mice, ex vivo, 48 h culture): greatly diminished the production
colonic inflammation (histological analysis) (oral, once a day, 5 days per week, compared to vehicle control): reduced colonic inflammation
colon-to-body weight ratio (oral, consistent with histological score): attenuation
suppressive effect on colonic inflammation at 10 mg/kg (oral, dose of 10 mg/kg): substantial reduction
